{
  "source": "patent US12692302B2",
  "about": "“Uses of IL-13 antagonists for treating atopic dermatitis” (Genentech, Inc., priority 2016, dated 2026)",
  "tested_on": "patients with persistent moderate to severe atopic dermatitis inadequately controlled by TCS",
  "test": "Clinical Study I (phase II, lebrikizumab + TCS vs placebo + TCS): efficacy outcomes",
  "type": "in vivo, human",
  "conditions": "for Mean % Change in % BSA Affected / Mean % Change in EASI / Mean % Change in Pruritus VAS / Mean % Change in SCORAD / Mean % Change in Sleep VAS / Mean Absolute Change in IGA: screening to baseline (2-week TCS run-in, before study drug)",
  "experimental": "Clinical Study I was a phase II, randomized, double-blind, placebo-controlled study to evaluate the safety and efficacy of lebrikizumab in patients (age 18-75) with persistent moderate to severe atopic dermatitis that is inadequately controlled by topical corticosteroids (TCS). In this Study, lebrikizumab was tested in combination with TCS.\nThe inclusion criteria included the following: age 18 to 75 years; AD diagnosed by the Hanifin/Rajka criteria and that had been present for at least 1 year at screening; moderate to severe AD as graded by the Rajka/Langeland criteria at screening; history of inadequate response to a 1 month (within the 3 months prior to the screening visit) treatment regimen of at least daily TCS and regular emollient for treatment of AD; EASI score 14 at screening and end of the run-in period (Visit 3), IGA score 3 (5-point scale) at screening and end of the run-in period (Visit 3); AD involvement of 10% body surface area (BSA) at screening; and Pruritus VAS score (measured as part of the SCORAD) of 3 at screening.\nRun-in Period. Following the screening visit, eligible patients entered a 2-week run-in period (Days −14 to −1) during which a protocol-specified topical therapy regimen was initiated. On the first day of the run-in period (Day −14) patients received TCS for use throughout the run-in period. Patients were required to apply the following topical therapy regimen daily: emollient to all xerotic skin surfaces, at least once daily; TCS cream consisting of medium potency TCS (triamcinolone acetonide 0.1%), two times per day, only to all active skin lesions.\nTreatment Period. […] The plan was to randomize approximately 200 patients (1:1:1:1) to one of the following four treatment groups (see FIG. 1): (1) Group 1: lebrikizumab 250 mg administered subcutaneously (SC) single dose (Day 1) followed by 2 placebo doses (at Week 4 and at Week 8) for a total of 3 doses+TCS cream; (2) Group 2: lebrikizumab 125 mg SC single dose (Day 1) followed by 2 placebo doses (Week 4 and Week 8) for a total of 3 doses+TCS cream; (3) Group 3: lebrikizumab 125 mg SC every 4 weeks (Q4W) for a total of 3 doses+TCS cream; and (4) Group 4: placebo SC Q4W for a total of 3 doses+TCS cream. Three active doses were included to characterize both exposure-response relationships and dosing frequency requirements.\nPatients randomized to these four study treatment groups received study drug (lebrikizumab or placebo SC) in combination with TCS. Throughout the 12-week treatment period these patients continued to apply emollient at least once daily and triamcinolone acetonide 0.1% cream as described in the run-in period (two times per day to all active skin lesions on the body). […] Patients recorded their use of topical creams and responded to PRO-related questions using a hand held eDiary throughout the treatment period. At each study visit the patient was required to bring their TCS containers to the study site to be weighed.\nEfficacy Outcome Measures. The primary efficacy outcome measure was the percentage of patients achieving EASI-50 (a 50% reduction in EASI score from baseline) at Week 12. […]",
  "key": {"[1]": {"conditions": "125 mg single dose + TCS BID (n = 52), Week 12"}, "[2]": {"conditions": "250 mg single dose + TCS BID (n = 53), Week 12"}},
  "data": [
    {"substance": "lebrikizumab: monoclonal humanized anti-IL-13 IgG4 antibody; heavy chain SEQ ID NO: 11, light chain SEQ ID NO: 12; formulated at 125 mg/mL in prefilled syringe", "values": [
      {"measurement": "% change from baseline in ADIQ, placebo-corrected change", "setting": "[1]", "value": "−4.9", "unit": "%"},
      {"measurement": "% change from baseline in Pruritus VAS (from SCORAD), mean", "setting": "[1]", "value": "−34.92", "unit": "%"},
      {"measurement": "% change from baseline in Pruritus VAS (from SCORAD), placebo-corrected change", "setting": "[1]", "value": "−7.38", "unit": "%"},
      {"measurement": "% change from baseline in Sleep Loss VAS (from SCORAD), mean", "setting": "[1]", "value": "−53.1", "unit": "%"},
      {"measurement": "% change from baseline in Sleep Loss VAS (from SCORAD), placebo-corrected change", "setting": "[1]", "value": "−30.6", "unit": "%"},
      {"measurement": "DLQI, % change from baseline, adjusted mean", "setting": "[1]", "value": "−34.33", "unit": "%"},
      {"measurement": "DLQI, % change from baseline, Δ vs placebo", "setting": "[1]", "value": "−0.76", "unit": "%"},
      {"measurement": "SCORAD score % change from baseline, adjusted mean", "setting": "[1]", "value": "−38.7", "unit": "%"},
      {"measurement": "SCORAD score % change from baseline, Δ vs placebo", "setting": "[1]", "value": "−3.3", "unit": "%"},
      {"measurement": "Total % BSA affected, % change from baseline, adjusted mean", "setting": "[1]", "value": "−45.2", "unit": "%"},
      {"measurement": "Total % BSA affected, % change from baseline, Δ vs placebo", "setting": "[1]", "value": 2.2, "unit": "%"},
      {"measurement": "Change from baseline Pruritus VAS, mean % change", "setting": "250 mg SD + TCS, Week 20", "value": "−30.25", "unit": "%"},
      {"measurement": "Change from baseline Pruritus VAS, placebo-corrected differences", "setting": "250 mg SD + TCS, Week 20", "value": "−8.79", "unit": "%"},
      {"measurement": "Change from baseline in EASI, mean % change", "setting": "250 mg SD + TCS, Week 20", "value": "−55.9", "unit": "%"},
      {"measurement": "Change from baseline in EASI, placebo-corrected differences", "setting": "250 mg SD + TCS, Week 20", "value": "−1.88", "unit": "%"},
      {"measurement": "Change from baseline in the % BSA affected, mean % change", "setting": "250 mg SD + TCS, Week 20", "value": "−46.4", "unit": "%"},
      {"measurement": "Change from baseline in the % BSA affected, placebo-corrected differences", "setting": "250 mg SD + TCS, Week 20", "value": 5.56, "unit": "%"},
      {"measurement": "Patients maintaining EASI-50 response at Weeks 12 and 20, %", "setting": "250 mg SD + TCS, Week 20", "value": "(78.4) %"},
      {"measurement": "Patients maintaining EASI-50 response at Weeks 12 and 20, placebo-corrected differences", "setting": "250 mg SD + TCS, Week 20", "value": 5.65, "unit": "%"},
      {"measurement": "Patients maintaining EASI-75 response at Weeks 12 and 20, %", "setting": "250 mg SD + TCS, Week 20", "value": "(61.5) %"},
      {"measurement": "Patients maintaining EASI-75 response at Weeks 12 and 20, placebo-corrected differences", "setting": "250 mg SD + TCS, Week 20", "value": "−5.13", "unit": "%"},
      {"measurement": "Patients maintaining IGA 0/1 response at Weeks 12 and 20, %", "setting": "250 mg SD + TCS, Week 20", "value": "(60.0) %"},
      {"measurement": "Patients maintaining IGA 0/1 response at Weeks 12 and 20, placebo-corrected differences", "setting": "250 mg SD + TCS, Week 20", "value": 0, "unit": "%"},
      {"measurement": "Patients maintaining SCORAD-50 response at Weeks 12 and 20, %", "setting": "250 mg SD + TCS, Week 20", "value": "(64.0) %"},
      {"measurement": "Patients maintaining SCORAD-50 response at Weeks 12 and 20, placebo-corrected differences", "setting": "250 mg SD + TCS, Week 20", "value": "−14.60", "unit": "%"},
      {"measurement": "% Patients achieving EASI-50", "setting": "[2]", "value": "(69.8) %"},
      {"measurement": "% Patients achieving EASI-50, placebo-corrected changes", "setting": "[2]", "value": 7.6, "unit": "%"},
      {"measurement": "% Patients achieving EASI-75", "setting": "[2]", "value": "(49.1) %"},
      {"measurement": "% Patients achieving EASI-75, placebo-corrected changes", "setting": "[2]", "value": 15.1, "unit": "%"},
      {"measurement": "% Patients achieving IGA 0/1", "setting": "[2]", "value": "(28.3) %"},
      {"measurement": "% Patients achieving IGA 0/1, placebo-corrected change", "setting": "[2]", "value": 9.4, "unit": "%"},
      {"measurement": "% Patients achieving SCORAD-50", "setting": "[2]", "value": 47.2, "unit": "%"},
      {"measurement": "% Patients achieving SCORAD-50, placebo-corrected change", "setting": "[2]", "value": 20.8, "unit": "%"},
      {"measurement": "% Patients achieving SCORAD-75", "setting": "[2]", "value": "(11.3) %"},
      {"measurement": "% change from baseline in AD Specific health-related QoL - ADIQ, mean", "setting": "[2]", "value": "−30.8", "unit": "%"},
      {"measurement": "% change from baseline in ADIQ, placebo-corrected change", "setting": "[2]", "value": "−1.8", "unit": "%"},
      {"measurement": "% change from baseline in Pruritus VAS (from SCORAD), mean", "setting": "[2]", "value": "−32.82", "unit": "%"},
      {"measurement": "% change from baseline in Pruritus VAS (from SCORAD), placebo-corrected change", "setting": "[2]", "value": "−5.28", "unit": "%"},
      {"measurement": "% change from baseline in Sleep Loss VAS (from SCORAD), mean", "setting": "[2]", "value": "−47.2", "unit": "%"},
      {"measurement": "% change from baseline in Sleep Loss VAS (from SCORAD), placebo-corrected change", "setting": "[2]", "value": "−24.6", "unit": "%"},
      {"measurement": "DLQI, % change from baseline, adjusted mean", "setting": "[2]", "value": "−40.67", "unit": "%"},
      {"measurement": "DLQI, % change from baseline, Δ vs placebo", "setting": "[2]", "value": "−7.09", "unit": "%"},
      {"measurement": "SCORAD score % change from baseline, adjusted mean", "setting": "[2]", "value": "−42.6", "unit": "%"},
      {"measurement": "SCORAD score % change from baseline, Δ vs placebo", "setting": "[2]", "value": "−7.2", "unit": "%"},
      {"measurement": "Total % BSA affected, % change from baseline, adjusted mean", "setting": "[2]", "value": "−38.6", "unit": "%"},
      {"measurement": "Total % BSA affected, % change from baseline, Δ vs placebo", "setting": "[2]", "value": 8.8, "unit": "%"},
      {"measurement": "% Patients achieving SCORAD-50", "setting": "250 mg single dose + TCS BID (n = 53), Week 12, listed as Lebri", "value": "(47.2) %"},
      {"measurement": "Mean % Change in % BSA Affected", "setting": "125 mg Q4W group (n = 51)", "value": "−9.3", "unit": "%"},
      {"measurement": "Mean % Change in EASI", "setting": "125 mg Q4W group (n = 51)", "value": "−9.1", "unit": "%"},
      {"measurement": "Mean % Change in Pruritus VAS", "setting": "125 mg Q4W group (n = 51)", "value": "−15.2", "unit": "%"},
      {"measurement": "Mean % Change in SCORAD", "setting": "125 mg Q4W group (n = 51)", "value": "−7.7", "unit": "%"},
      {"measurement": "Mean % Change in Sleep VAS", "setting": "125 mg Q4W group (n = 51)", "value": "−12.9", "unit": "%"},
      {"measurement": "Mean Absolute Change in IGA", "setting": "125 mg Q4W group (n = 51)", "value": "−0.14"},
      {"measurement": "Mean % Change in % BSA Affected", "setting": "125 mg SD group (n = 52)", "value": "−17.1", "unit": "%"},
      {"measurement": "Mean % Change in EASI", "setting": "125 mg SD group (n = 52)", "value": "−14.3", "unit": "%"},
      {"measurement": "Mean % Change in Pruritus VAS", "setting": "125 mg SD group (n = 52)", "value": "−23.8", "unit": "%"},
      {"measurement": "Mean % Change in SCORAD", "setting": "125 mg SD group (n = 52)", "value": "−12.2", "unit": "%"},
      {"measurement": "Mean % Change in Sleep VAS", "setting": "125 mg SD group (n = 52)", "value": "−29.0", "unit": "%"},
      {"measurement": "Mean Absolute Change in IGA", "setting": "125 mg SD group (n = 52)", "value": "−0.21"},
      {"measurement": "Mean % Change in % BSA Affected", "setting": "250 mg SD group (n = 53)", "value": "−4.3", "unit": "%"},
      {"measurement": "Mean % Change in EASI", "setting": "250 mg SD group (n = 53)", "value": "−10.2", "unit": "%"},
      {"measurement": "Mean % Change in Pruritus VAS", "setting": "250 mg SD group (n = 53)", "value": "−15.5", "unit": "%"},
      {"measurement": "Mean % Change in SCORAD", "setting": "250 mg SD group (n = 53)", "value": "−9.9", "unit": "%"},
      {"measurement": "Mean % Change in Sleep VAS", "setting": "250 mg SD group (n = 53)", "value": "−8.1", "unit": "%"},
      {"measurement": "Mean Absolute Change in IGA", "setting": "250 mg SD group (n = 53)", "value": "−0.17"}
    ]}
  ]
}
